What all share (assay type): cell-based
For data set [1], the system named is enterovirus EV71 (SZ-98 strain). Briefly: anti-EV71 activity, therapeutic effect on Vero cell (CPE inhibition, Celltiter Glo). Particulars: EV71 (SZ-98 strain), therapeutic effect on Vero cell; read-out: IC50. As for the experimental part:
(§1) Test principle: Vero cell, MRC-5 cell, and RD cell were used as host of virus, respectively, and samples were tested for their inhibition of cytopathic effect (CPE) caused by virus.
(§2) 1. Virus strain: enterovirus EV71 (SZ-98 strain, provided by Chinese Center for Disease Control and Prevention), Vero cell (provided by the Cell Bank of Chinese Academy of Sciences), MRC-5 cell (provided by the Cell Bank of Chinese Academy of Sciences), and RD cell (provided by the Cell Bank of Chinese Academy of Sciences), were subjected to passage culture, respectively, and stored at −80° C.
(§3) 2. Sample treatment: a test sample (Compounds 1-14 and positive control agent) was dissolved in dimethyl sulfoxide (DMSO) to prepare a stock solution, which was stored at −20° C. The stock solution was diluted with DMEM medium (Gibco Company) containing 2% fetal bovine serum (Gibco Company) to prepare a 100 μM solution before use, and was 3-fold diluted with the medium to obtain 8 diluted concentrates.
(§4) 3. Positive control agent: Con1 (pitstop2) (purchased from AmyJet Scientific Inc., Abcam), a broad-spectrum antiviral inhibitor.
(§5) 4. Test method: • 4.1 Therapeutic effect: the cells were seeded on a 96-well culture plate, and cultured in a 5% CO2, 37° C. incubator for 24 h. About 100 TCID50 enterovirus EV71 was added to each well. After adsorption at 37° C. for 1 h, the virus solution was discarded, and a drug was added at different diluted concentrates, respectively. Meanwhile, virus control and cell control were set, and cultured at 37° C. […] The virus-inhibition rate of a sample at each concentration was calculated based on the chemiluminescent value, the sample concentration was used as abscissa, and the inhibition rate was used as ordinate, and S-Curve fitting was performed by using Origin software. Half maximal inhibitory concentration (IC50) of each sample for enterovirus EV71 was calculated based on the fitting results. Median toxic concentration (TC50) was determined by the same method. […] To each well, a drug was added at a different diluted concentration, then the cells were cultured at 37° C. for 2 h, and then the drug was discarded. About 100 TCID50 enterovirus EV71 was added to each well, adsorbed at 37° C. for 1.5 h, then the virus solution was discarded, and a maintenance medium free of drug was added. Meanwhile, virus control and cell control were set, and cultured at 37° C. […] The virus-inhibition rate of a sample at each concentration was calculated, and half maximal inhibitory concentration (IC50), median toxic concentration (TC50), and selection index (SI) of each sample for enterovirus EV71 were calculated. The methods for determining and calculating them were as described in Item 4.1

The test system is the same in data set [2]. Briefly: anti-EV71 activity, therapeutic effect on MRC-5 cell (CPE inhibition, Celltiter Glo). The conditions noted are these: MRC5. Here is the method: as §1, §2, §3, §4, §5
Data set [3] shares this test system. The experiment in a line: anti-EV71 activity, therapeutic effect on RD cell (CPE inhibition, Celltiter Glo). As for the experimental part:
as §1, §2, §3, §4, §5

The test system is the same in data set [4]. Briefly: anti-EV71 activity, preventive effect on Vero cell (CPE inhibition). As for the experimental part: as §1, §2, §3, §4, §5
The test system is the same in data set [5]. Briefly: anti-EV71 activity, preventive effect on RD cell (CPE inhibition). Here is the method:
as §1, §2, §3, §4, §5

Data set [6] can be described thus: median toxic concentration on Vero cell. Particulars: African green monkey, Vero cells; for CC50: Table 1-1 (therapeutic effect), read-out: TC50 (the source's name); for CC50 at 2 h: Table 2-1 (preventive effect), read-out: TC50. Here is the method: as §2, §3, §5
The nature of data set [7]: median toxic concentration on MRC-5 cell. The conditions noted are these: human, MRC-5 cells, Table 1-2 (therapeutic effect), read-out: TC50 (the source's name). As for the experimental part:
as §2, §3, §5

The nature of data set [8]: median toxic concentration on RD cell. Particulars: human, RD cells; for CC50 at 2 h: Table 2-2 (preventive effect), read-out: TC50; for CC50: read-out: TC50 (the source's name). Here is the method: as §2, §3, §5

Here are results for nine compounds from patent publication US10611742B2, “4-oxo-4,5-dihydrothiazole derivative, preparation method and use thereof” (Institute of Pharmacology and Toxicology Academy of …, priority 2015, dated 2020).

`O=C1N=C(NS(=O)(=O)c2cccc3ccccc23)S/C1=C\c1ccc(Cl)cc1` [Compound 4, Naphthalene-1-sulfonic acid [5-(4-chloro-benzylidene)-4-oxo-4,5-dihydro-thiazol-2-yl] amide]: the IC50 is greater than 2.47 µM in data set [1]; greater than 7.41 µM in data set [2]; 5.75 µM in data set [3] (EV71 (SZ-98 strain)); 5.75 µM in data set [3] (Enterovirus, EV71); greater than 2.47 µM in data set [4]; greater than 7.41 µM in data set [5]. Besides, the “anti-EV71 activity (in words)” value in data set [3] is listed as “better anti-EV71 activity”. The CC50 in data set [6] turned out to be 4.28 µM; in data set [7] it was 12.8 µM; in data set [8] it was 12.8 µM. For the same compound, the CC50 at 2 h in data set [6] was found to be 4.28 µM; in data set [8], 12.8 µM.
Regarding `O=C1N=C(NS(=O)(=O)c2cccc3ccccc23)S/C1=C\c1ccc(Cl)cc1Cl` [Compound 1, Naphthalene-1-sulfonic acid [5-(2,4-dichloro-benzylidene)-4-oxo-4,5-dihydro-thiazol-2-yl] amide], the IC50 is 7.41 µM in data set [1]; greater than 7.41 µM in data set [2]; greater than 7.41 µM in data set [3] (EV71 (SZ-98 strain)); greater than 7.41 µM in data set [4]; greater than 7.41 µM in data set [5]. The CC50 came out at 10.7 µM in data set [6], 12.8 µM in data set [7] and 12.8 µM in data set [8] (Table 1-3 (therapeutic effect)). The CC50 at 2 h in data set [6] turned out to be 10.7 µM; in data set [8], 12.8 µM.
For the compound `COc1ccc(/C=C2\SC(NS(=O)(=O)c3cccc4ccccc34)=NC2=O)cc1O` [Compound 7, Naphthalene-1-sulfonic acid [5-(3-hydroxy-4-methoxy-benzylidene)-4-oxo-4,5-dihydro-thiazol-2-yl] amide], the IC50 in data set [1] was greater than 2.47 µM; in data set [2] it was greater than 2.47 µM; in data set [3] (EV71 (SZ-98 strain)) it was greater than 0.82 µM; in data set [4], greater than 2.47 µM; in data set [5], greater than 0.82 µM. For the same compound, the CC50 worked out at 7.41 µM in data set [6], 10.7 µM in data set [7] and 3.56 µM in data set [8] (Table 1-3 (therapeutic effect)). The CC50 at 2 h in data set [6] was 7.41 µM; in data set [8], 3.56 µM.
For the compound `COc1cccc(OC)c1/C=C1\SC(NS(=O)(=O)c2cccc3ccccc23)=NC1=O` [Compound 9, Naphthalene-1-sulfonic acid [5-(2,6-dimethoxy-benzylidene)-4-oxo-4,5-dihydro-thiazol-2-yl] amide], the IC50 in data set [1] is greater than 22.2 µM; in data set [2], greater than 22.2 µM; in data set [3] (EV71 (SZ-98 strain)), greater than 7.41 µM; in data set [4], greater than 22.2 µM; in data set [5], greater than 7.41 µM. For the same compound, the CC50 in data set [6] came to 38.5 µM; in data set [7], 38.5 µM; in data set [8] (Table 1-3 (therapeutic effect)) it was 12.8 µM. The figures for the CC50 at 2 h in data set [6] and in data set [8] were 38.5 µM and 12.8 µM, respectively.
For the compound `O=C1N=C(NS(=O)(=O)c2cccc3ccccc23)S/C1=C\c1ccc(-c2ccccc2)cc1` [Compound 11, Naphthalene-1-sulfonic acid (5-biphenyl-4-yl-methylene-4-oxo-4,5-dihydro-thiazol-2-yl) amide], the IC50 was greater than 0.82 µM in data set [1]; greater than 7.41 µM in data set [2]; greater than 22.2 µM in data set [3] (EV71 (SZ-98 strain)); greater than 0.82 µM in data set [4]; greater than 22.2 µM in data set [5]. Besides, the CC50 in data set [6] worked out at 3.56 µM; in data set [7], 32 µM; in data set [8] (Table 1-3 (therapeutic effect)), 46.2 µM. In addition, the CC50 at 2 h is 3.56 µM in data set [6] and 46.2 µM in data set [8].
Turning to `COc1cc(/C=C2\SC(NS(=O)(=O)c3cccc4ccccc34)=NC2=O)ccc1O` [Compound 2, Naphthalene-1-sulfonic acid [5-(3-methoxy-4-hydroxy-benzylidene)-4-oxo-4,5-dihydro-thiazol-2-yl] amide], the IC50 in data set [1], in data set [2], in data set [3] (EV71 (SZ-98 strain)), in data set [4] and in data set [5] was greater than 7.41 µM in each case. Further, the CC50 in data set [6] was 12.8 µM; in data set [7] it was 22.2 µM; in data set [8] (Table 1-3 (therapeutic effect)) it was 22.2 µM. The values for the CC50 at 2 h in data set [6] and in data set [8] were 12.8 µM and 22.2 µM, respectively.
For the compound `O=C1N=C(NS(=O)(=O)c2cccc3ccccc23)S/C1=C\c1cccc(O)c1` [Compound 6, Naphthalene-1-sulfonic acid [5-(3-hydroxy-benzylidene)-4-oxo-4,5-dihydro-thiazol-2-yl] amide], the IC50 was greater than 22.2 µM in data set [1]; greater than 22.2 µM in data set [2]; 15.4 µM in data set [3] (EV71 (SZ-98 strain)); greater than 22.2 µM in data set [4]; greater than 22.2 µM in data set [5]. For the same compound, the “anti-EV71 activity (in words)” value in data set [3] is given as “better anti-EV71 activity”. For the same compound, the CC50 in data set [6], in data set [7] and in data set [8] (Table 1-3 (therapeutic effect)) was 38.5 µM in each case. The CC50 at 2 h in data set [6] and in data set [8] was 38.5 µM each time.
Regarding `CC(=O)Nc1ccc(/C=C2\SC(NS(=O)(=O)c3cccc4ccccc34)=NC2=O)cc1` [Compound 12, Naphthalene-1-sulfonic acid [5-(4-acetylamino-benzylidene)-4-oxo-4,5-dihydro-thiazol-2-yl] amide], the IC50 in data set [1], in data set [2], in data set [3] (EV71 (SZ-98 strain)), in data set [4] and in data set [5] was greater than 22.2 µM each time. Also, the CC50 worked out at 32 µM in data set [6], 38.5 µM in data set [7] and 38.5 µM in data set [8] (Table 1-3 (therapeutic effect)). Also, the figures for the CC50 at 2 h in data set [6] and in data set [8] were 32 µM and 38.5 µM, respectively.
`O=C1N=C(NS(=O)(=O)c2cccc3ccccc23)S/C1=C\c1ccc(O)c(Br)c1` [Compound 8, Naphthalene-1-sulfonic acid [5-(3-bromo-4-hydroxy-benzylidene)-4-oxo-4,5-dihydro-thiazol-2-yl] amide]: the IC50 is greater than 7.41 µM in data set [1]; greater than 2.47 µM in data set [2]; 22.2 µM in data set [3] (EV71 (SZ-98 strain)); greater than 7.41 µM in data set [4]; greater than 22.2 µM in data set [5]. In addition, the “anti-EV71 activity (in words)” value in data set [3] is “better anti-EV71 activity”. Also, the CC50 worked out at 12.8 µM in data set [6], 9.54 µM in data set [7] and 66.7 µM in data set [8] (Table 1-3 (therapeutic effect)). Moreover, the CC50 at 2 h worked out at 12.8 µM in data set [6] and 66.7 µM in data set [8].
